Laboratory results taken from ChEMBL document CHEMBL2074106, “Molecular cloning and tissue distribution of rat peptide transporter PEPT2” (Biochim Biophys Acta, 1996).

Molecular target: T1, Solute carrier family 15 member 2 (Rattus norvegicus) (UniProt Q63424)
T1 sequence (whole entry): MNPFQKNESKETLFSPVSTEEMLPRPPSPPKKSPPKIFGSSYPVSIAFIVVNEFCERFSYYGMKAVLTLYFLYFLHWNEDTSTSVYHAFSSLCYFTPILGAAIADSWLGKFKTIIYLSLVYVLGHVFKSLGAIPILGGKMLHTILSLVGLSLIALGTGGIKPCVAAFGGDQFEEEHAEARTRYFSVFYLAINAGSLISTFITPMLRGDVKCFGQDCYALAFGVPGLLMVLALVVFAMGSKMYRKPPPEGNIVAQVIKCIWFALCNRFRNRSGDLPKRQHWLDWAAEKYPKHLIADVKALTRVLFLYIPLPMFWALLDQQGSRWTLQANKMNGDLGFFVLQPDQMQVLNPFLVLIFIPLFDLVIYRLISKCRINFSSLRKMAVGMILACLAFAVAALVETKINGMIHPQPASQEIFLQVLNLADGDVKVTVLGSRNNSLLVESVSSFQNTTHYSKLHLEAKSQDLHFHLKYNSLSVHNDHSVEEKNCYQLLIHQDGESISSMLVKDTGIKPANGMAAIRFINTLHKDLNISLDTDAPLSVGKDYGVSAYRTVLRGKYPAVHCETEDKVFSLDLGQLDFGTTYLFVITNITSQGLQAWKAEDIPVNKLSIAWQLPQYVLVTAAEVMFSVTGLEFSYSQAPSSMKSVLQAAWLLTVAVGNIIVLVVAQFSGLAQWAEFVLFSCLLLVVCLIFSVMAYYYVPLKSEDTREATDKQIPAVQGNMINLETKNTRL
Assay: TP_TRANSPORTER: uptake in Xenopus laevis oocytes
Type: functional, cell-based
Details: Oocyte

Q: `CC(C)C[C@H](NC(=O)[C@@H](O)[C@H](N)Cc1ccccc1)C(=O)O` was tested. Which Activity did it give?
A: Its Activity is “substrate [+]”.
